Laboratory results from patent US12378249B2, “Isoquinoline compounds and uses thereof” (Genentech, Inc., priority 2018, dated 2025).

Each molecule was assayed against HPK1 (Homo sapiens (Human), UniProt Q92918, S171E/T165E) (assay: HPK1-FL HTRF Enzymatic Assay (HTRF)). Details: HPK full length T165E S171E 0.125 nM, ATP 1 mM, Biotin-SLP76 100 nM, read-out: HPK1 Ki (nM), H = HTRF.
HPK1, sequence (Q92918 whole entry T165E/S171E): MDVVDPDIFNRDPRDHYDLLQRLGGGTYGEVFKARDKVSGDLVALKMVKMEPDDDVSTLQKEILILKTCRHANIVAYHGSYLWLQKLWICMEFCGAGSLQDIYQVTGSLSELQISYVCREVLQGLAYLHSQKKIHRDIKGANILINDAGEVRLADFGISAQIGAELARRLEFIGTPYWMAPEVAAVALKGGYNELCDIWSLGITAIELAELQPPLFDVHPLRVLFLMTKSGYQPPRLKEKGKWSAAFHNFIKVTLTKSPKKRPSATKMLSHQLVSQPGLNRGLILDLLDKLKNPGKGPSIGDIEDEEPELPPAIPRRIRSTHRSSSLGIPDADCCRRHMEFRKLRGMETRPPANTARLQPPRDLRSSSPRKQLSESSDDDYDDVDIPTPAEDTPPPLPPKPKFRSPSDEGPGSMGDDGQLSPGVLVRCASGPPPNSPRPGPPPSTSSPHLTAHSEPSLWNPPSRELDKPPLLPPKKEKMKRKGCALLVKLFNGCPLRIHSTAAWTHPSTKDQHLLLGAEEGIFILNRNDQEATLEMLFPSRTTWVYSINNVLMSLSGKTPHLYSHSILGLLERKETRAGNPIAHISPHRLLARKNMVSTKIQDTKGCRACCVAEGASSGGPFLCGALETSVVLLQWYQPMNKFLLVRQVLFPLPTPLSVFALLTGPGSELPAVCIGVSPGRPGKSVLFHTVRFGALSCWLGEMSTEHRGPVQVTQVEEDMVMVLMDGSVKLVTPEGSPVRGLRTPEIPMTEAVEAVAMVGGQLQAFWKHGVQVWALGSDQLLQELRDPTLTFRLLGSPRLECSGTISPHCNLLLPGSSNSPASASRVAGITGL
Format: biochemical
How it was run: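 Ki derived from % activity calculated from the TR-FRET 665/620 ratio, using Eu-anti-pSLP76 and SA-XL665 detection added for 60 min. Reaction: compound preincubated 30 min with full-length double-mutant HPK1, then 60 min with Biotin-SLP-76 and 1 mM ATP, pH 7.5 HEPES buffer.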
Work on `Cc1c(N)cncc1-c1cc(F)c2cnc(Nc3cc4n(n3)CC(=O)NCC43CC3)cc2c1` [Compound 225, 2′-((6-(5-amino-4-methylpyridin-3-yl)-8-fluoroisoquinolin-3-yl)amino)-5′,6′-dihydrospiro[cyclopropane-1,4′-pyrazolo[1,5-d][1,4]diazepin]-7′(8′H)-one] yielded a Ki of 0.013 nM. `Cc1c(-c2cc3cc(Nc4cc5n(n4)CC(=O)N(C(C)C)CC5)ncc3cc2F)cnc2c1NC(=O)CO2` [Compound 123, 7-[7-fluoro-3-[(6-isopropyl-7-oxo-5,8-dihydro-4H-pyrazolo[1,5-d][1,4]diazepin-2-yl)amino]-6-isoquinolyl]-8-methyl-1H-pyrido[2,3-b][1,4]oxazin-2-one] was tested, and the Ki was 0.11 nM. For `Cc1c(-c2cc3cc(Nc4cc5n(n4)CC(=O)N(C)CC5)ncc3cc2F)cnc2c1NCC[C@H]2O` (single isomer, unassigned) [Compound 236b], the Ki was 0.062 nM. For `Cc1c(N)cncc1-c1cc2cc(Nc3cc4n(n3)CC(=O)NCC4)ncc2cc1F` [Compound 144, 2-((6-(5-amino-4-methylpyridin-3-yl)-7-fluoroisoquinolin-3-yl)amino)-5,6-dihydro-4H-pyrazolo[1,5-d][1,4]diazepin-7(8H)-one], the Ki was 0.062 nM. With `Cc1cc(CN)ccc1-c1cc2cc(Nc3cc4n(n3)CC(=O)N(C)CC4)ncc2cc1F` [Compound 213, 2-((6-(4-(aminomethyl)-2-methylphenyl)-7-fluoroisoquinolin-3-yl)amino)-6-methyl-5,6-dihydro-4H-pyrazolo[1,5-d][1,4]diazepin-7(8H)-one] the Ki was 25 nM. `Cc1c(-c2cc(F)c3cnc(Nc4cc5n(n4)CC(=O)N(C)CC54CC4)cc3c2)cnc2c1NCC[C@H]2O` (single isomer, unassigned) [Compound 237b] gave a Ki of 0.319 nM. Work on `Cc1c(N)cncc1-c1cc2cc(Nc3cc4n(n3)CC(=O)N(C(C)C)C[C@H]4O)ncc2cc1F` (single isomer, unassigned) [Compound 153a] yielded a Ki of 0.064 nM. `Cc1c(N)cncc1-c1cc2cc(Nc3cc4n(n3)CC(=O)N([C@@H](C)CO)CC4)ncc2cc1F` (single isomer, unassigned) [Compound 149a] was tested, and the Ki was 0.043 nM. Molecule `Cc1c(N)cncc1-c1cc2cc(Nc3cc4n(n3)CC(=O)N(CCN3CC(F)C3)CC4)ncc2cc1F` [Compound 164, 2-((6-(5-amino-4-methylpyridin-3-yl)-7-fluoroisoquinolin-3-yl)amino)-6-(2-(3-fluoroazetidin-1-yl)ethyl)-5,6-dihydro-4H-pyrazolo[1,5-d][1,4]diazepin-7(8H)-one] has a Ki of 0.013 nM. `Cc1ncc(-c2cc3cc(Nc4cc5n(n4)CC(=O)N(C(C)C)CC5F)ncc3cc2F)c(C)c1N` (racemic) [Compound 150, (+/-)-2-((6-(5-amino-4,6-dimethylpyridin-3-yl)-7-fluoroisoquinolin-3-yl)amino)-4-fluoro-6-isopropyl-5,6-dihydro-4H-pyrazolo[1,5-d][1,4]diazepin-7(8H)-one] gave a Ki of 0.15 nM. `Cc1c(N)cncc1-c1cc2cc(Nc3cc4n(n3)CC(=O)N([C@@H](C)C#N)CC4)ncc2cc1F` (single isomer, unassigned) [Compound 154a] was tested, and the Ki was 0.014 nM. Molecule `Cc1c[nH]c2c(C)c(-c3cc4cc(Nc5cc6n(n5)CC(=O)N(C)CC6)ncc4cc3F)cnc12` [Compound 195, 2-((6-(3,7-dimethyl-1H-pyrrolo[3,2-b]pyridin-6-yl)-7-fluoroisoquinolin-3-yl)amino)-6-methyl-5,6-dihydro-4H-pyrazolo[1,5-d] [1,4]diazepin-7(8H)-one] has a Ki of 0.26 nM. Molecule `Cc1c(-c2cc3cc(Nc4cc5n(n4)CC(=O)NCC5)ncc3cc2F)cnc2c1NCCO2` [Compound 160, 2-((7-fluoro-6-(8-methyl-2,3-dihydro-1H-pyrido[2,3-b][1,4]oxazin-7-yl)isoquinolin-3-yl)amino)-5,6-dihydro-4H-pyrazolo[1,5-d][1,4]diazepin-7(8H)-one] has a Ki of 0.013 nM. For `Cc1c(-c2cc3cc(Nc4cc5n(n4)CC(=O)N(C)CC5)ncc3cc2F)cnc(=O)n1C` [Compound 203, 2-((6-(1,6-dimethyl-2-oxo-1,2-dihydropyrimidin-5-yl)-7-fluoroisoquinolin-3-yl)amino)-6-methyl-5,6-dihydro-4H-pyrazolo[1,5-d][1,4]diazepin-7(8H)-one], the Ki was 97 nM. With `Cc1c(-c2cc3cc(Nc4cc5n(n4)CC(=O)N(C(C)C#N)CC5)ncc3cc2F)cnc2c1NCCO2` (single isomer, unassigned) [Compound 147b] the Ki was 0.013 nM. In the case of `Cc1c(N)cncc1-c1cc(Cl)c2cnc(Nc3cc4n(n3)CC(=O)N(C(C)C)CC4)cc2c1` [Compound 117, 2-((6-(5-amino-4-methylpyridin-3-yl)-8-chloroisoquinolin-3-yl)amino)-6-isopropyl-5,6-dihydro-4H-pyrazolo[1,5-d][1,4]diazepin-7(8H)-one], the Ki is reported as 0.64 nM. Work on `Cc1c(NS(C)(=O)=O)cncc1-c1cc2cc(Nc3cc4n(n3)CC(=O)N(C)CC4)ncc2cc1F` [Compound 172, N-(5-(7-fluoro-3-((6-methyl-7-oxo-5,6,7,8-tetrahydro-4H-pyrazolo[1,5-d][1,4]diazepin-2-yl)amino)isoquinolin-6-yl)-4-methylpyridin-3-yl)methanesulfonamide] yielded a Ki of 0.46 nM. Molecule `Cc1c(N)cncc1-c1cc2cc(Nc3cc4n(n3)CC(=O)N(C)CC43CC3)ncc2cc1F` [Compound 111, 2-[[6-(5-amino-4-methyl-3-pyridyl)-7-fluoro-3-isoquinolyl]amino]-6-methyl-spiro[5,8-dihydropyrazolo[1,5-d][1,4]diazepine-4,1′-cyclopropane]-7-one] has a Ki of 0.01 nM. With `Cc1c(N)cncc1-c1cc2cc(Nc3cc4n(n3)CC(=O)N(C(C)(C)C)C[C@H]4F)ncc2cc1F` (single isomer, unassigned) [Compound 167a] the Ki was 0.128 nM. `Cc1ncc(-c2cc3cc(Nc4cc5n(n4)CC(=O)N(C(C)C)CC5)ncc3cc2F)c(C)c1N` [Compound 126, 2-((6-(5-amino-4,6-dimethylpyridin-3-yl)-7-fluoroisoquinolin-3-yl)amino)-6-isopropyl-5,6-dihydro-4H-pyrazolo[1,5-d][1,4]diazepin-7(8H)-one] was tested, and the Ki was 0.148 nM. With `Cc1c(-c2cc3cc(Nc4cc5n(n4)CC(=O)N(C)CC5)ncc3cc2F)cnc2c1CNCCO2` [Compound 232, 2-((7-fluoro-6-(6-methyl-2,3,4,5-tetrahydropyrido[3,2-f][1,4]oxazepin-7-yl)isoquinolin-3-yl)amino)-6-methyl-5,6-dihydro-4H-pyrazolo[1,5-d][1,4]diazepin-7(8H)-one] the Ki was 11 nM. `Cc1c(N)cnnc1-c1cc2cc(Nc3cc4n(n3)CC(=O)N(C)CC4)ncc2cc1F` [Compound 216, 2-((6-(5-amino-4-methylpyridazin-3-yl)-7-fluoroisoquinolin-3-yl)amino)-6-methyl-5,6-dihydro-4H-pyrazolo[1,5-d][1,4]diazepin-7(8H)-one] showed a Ki of 2.3 nM. `Cc1c(-c2cc3cc(Nc4cc5n(n4)CC(=O)N(C)CC5)ncc3cc2F)cnc2c1[C@@](C)(O)CCO2` (single isomer, unassigned) [Compound 226a] was tested, and the Ki was 18 nM. For `Cc1c(N)cncc1-c1ccc2cnc(Nc3cc4n(n3)CC(=O)N(C(C)C)CC4)cc2c1` [Compound 129, 2-[[6-(5-amino-4-methyl-3-pyridyl)-3-isoquinolyl]amino]-6-isopropyl-5,8-dihydro-4H-pyrazolo[1,5-d][1,4]diazepin-7-one], the Ki was 0.04 nM. `Cc1c(-c2cc3cc(Nc4cc5n(n4)CC(=O)N(C)CC54CC4)ncc3cc2F)cnc2c1NCC[C@]2(C)O` (single isomer, unassigned) [Compound 229a] was tested, and the Ki was 0.09 nM. With `Cc1c(-c2cc3cc(Nc4ccn([C@@H](C)C#N)n4)ncc3cc2F)cnc2c1NCCO2` (single isomer, unassigned) [Compound 109b, 2-(3-((7-fluoro-6-(8-methyl-2,3-dihydro-1H-pyrido[2,3-b][1,4]oxazin-7-yl)isoquinolin-3-yl)amino)-1H-pyrazol-1-yl)propanenitrile] the Ki was 1.19 nM. Work on `Cc1c(-c2cc3cc(Nc4cc5n(n4)CC(=O)N(C)CC5)ncc3cc2F)cnc2c1NCCS2(=O)=O` [Compound 177, 2-((7-fluoro-6-(8-methyl-4,4-dioxido-2,3-dihydro-1H-pyrido[2,3-b][1,4]thiazin-7-yl)isoquinolin-3-yl)amino)-6-methyl-5,6-dihydro-4H-pyrazolo[1,5-d][1,4]diazepin-7(8H)-one] yielded a Ki of 0.277 nM. With `Cc1c(N)cncc1-c1cc2cc(Nc3cc4n(n3)CC(=O)NCC43CC3)ncc2cc1F` [Compound 224, 2′-((6-(5-amino-4-methylpyridin-3-yl)-7-fluoroisoquinolin-3-yl)amino)-5′,6′-dihydrospiro[cyclopropane-1,4′-pyrazolo[1,5-d][1,4]diazepin]-7′(8′H)-one] the Ki was 0.013 nM. Work on `CNCc1cncc(-c2cc3cc(Nc4cc5n(n4)CC(=O)N(C)CC5)ncc3cc2F)c1C` [Compound 210, 2-((7-fluoro-6-(4-methyl-5-((methylamino)methyl)pyridin-3-yl)isoquinolin-3-yl)amino)-6-methyl-5,6-dihydro-4H-pyrazolo[1,5-d][1,4]diazepin-7(8H)-one] yielded a Ki of 37 nM. `Cc1ccncc1-c1cc2cc(Nc3cn4c(n3)CC(=O)N(C)CC4)ncc2c(Cl)c1F` [Compound 114, 2-((8-chloro-7-fluoro-6-(4-methylpyridin-3-yl)isoquinolin-3-yl)amino)-7-methyl-6,7-dihydro-5H-imidazo[1,2-d][1,4]diazepin-8(9H)-one] showed a Ki of 75 nM. `Cc1c(-c2cc3cc(Nc4cc5n(n4)CS(=O)(=O)N(C)C5)ncc3cc2F)cnc2c1NCC[C@H]2O` (single isomer, unassigned) [Compound 242b] showed a Ki of 1.7 nM. Work on `Cc1c(-c2cc3cc(Nc4cc5n(n4)Cc4nccn4CC5)ncc3cc2F)cnc2c1NCCO2` [Compound 143, N-(7-fluoro-6-(8-methyl-2,3-dihydro-1H-pyrido[2,3-b][1,4]oxazin-7-yl)isoquinolin-3-yl)-5,6-dihydro-11H-imidazo[1,2-a]pyrazolo[1,5-d][1,4]diazepin-8-amine] yielded a Ki of 0.013 nM.
